From US20230382924A1, “MODULATORS OF CYSTIC FIBROSIS TRANSMEMBRANE CONDUCTANCE REGULATOR” (VERTEX PHARMACEUTICALS INCORPORATED, priority 2020, published 2023)
Where two headings read alike, the source gives them in different places.

Molecular target: CFTR (Homo sapiens, UniProt P13569)
Test: Membrane Potential Dye, Enteroid Assay A
Assay type: cell-based
Conditions: for EC50: read-out: Ent. A EC50
Summary of the method: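 Signal is reported as % Activity relative to a triple CFTR modulator control (3 μM + 3 μM + 300 nM acute). Read-out: membrane potential fluorescence (20 μM methyl oxonol) monitored for 15 min after chloride-free stimulation. Dye loading took 25 min at room temperature in Bath 1 buffer containing CaCC blockers.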

CFTR, sequence (P13569 with tags, fused parts or gaps DEL508-508): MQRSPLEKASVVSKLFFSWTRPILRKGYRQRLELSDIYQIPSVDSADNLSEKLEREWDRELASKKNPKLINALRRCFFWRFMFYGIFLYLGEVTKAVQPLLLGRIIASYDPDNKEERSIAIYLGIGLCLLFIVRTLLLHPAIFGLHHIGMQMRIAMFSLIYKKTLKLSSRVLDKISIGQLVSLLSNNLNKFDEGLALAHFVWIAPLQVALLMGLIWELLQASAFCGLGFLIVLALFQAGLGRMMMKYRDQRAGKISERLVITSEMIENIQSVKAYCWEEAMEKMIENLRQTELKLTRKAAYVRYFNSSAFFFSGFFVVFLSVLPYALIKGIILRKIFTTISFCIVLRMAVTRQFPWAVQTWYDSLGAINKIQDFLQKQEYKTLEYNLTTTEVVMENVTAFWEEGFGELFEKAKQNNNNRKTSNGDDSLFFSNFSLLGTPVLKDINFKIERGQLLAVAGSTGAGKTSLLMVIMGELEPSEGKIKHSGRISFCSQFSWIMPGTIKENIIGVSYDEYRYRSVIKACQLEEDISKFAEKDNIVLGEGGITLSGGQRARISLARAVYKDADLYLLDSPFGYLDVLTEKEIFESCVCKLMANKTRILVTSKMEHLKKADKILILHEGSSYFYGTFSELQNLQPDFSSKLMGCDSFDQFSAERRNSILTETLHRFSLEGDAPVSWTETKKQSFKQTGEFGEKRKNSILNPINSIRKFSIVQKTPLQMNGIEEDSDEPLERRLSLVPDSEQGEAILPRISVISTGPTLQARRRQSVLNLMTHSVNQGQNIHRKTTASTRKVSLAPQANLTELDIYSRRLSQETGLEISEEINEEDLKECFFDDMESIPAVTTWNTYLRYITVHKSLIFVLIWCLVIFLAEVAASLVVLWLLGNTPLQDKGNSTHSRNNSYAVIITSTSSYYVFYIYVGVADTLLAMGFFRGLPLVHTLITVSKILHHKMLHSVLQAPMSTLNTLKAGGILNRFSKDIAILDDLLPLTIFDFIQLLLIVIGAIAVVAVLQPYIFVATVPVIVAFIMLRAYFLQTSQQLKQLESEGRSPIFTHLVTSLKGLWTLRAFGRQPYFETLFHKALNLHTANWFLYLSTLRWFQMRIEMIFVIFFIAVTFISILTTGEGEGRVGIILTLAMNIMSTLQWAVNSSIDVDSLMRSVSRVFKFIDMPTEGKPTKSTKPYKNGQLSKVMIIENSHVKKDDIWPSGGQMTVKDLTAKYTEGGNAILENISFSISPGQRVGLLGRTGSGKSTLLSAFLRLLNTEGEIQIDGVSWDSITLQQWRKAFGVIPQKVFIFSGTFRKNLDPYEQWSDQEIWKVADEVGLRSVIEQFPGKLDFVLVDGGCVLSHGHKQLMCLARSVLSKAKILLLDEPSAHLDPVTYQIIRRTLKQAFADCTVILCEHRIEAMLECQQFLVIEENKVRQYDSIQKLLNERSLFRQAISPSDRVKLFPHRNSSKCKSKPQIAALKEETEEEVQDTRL

SMILES	Ent. A Max Activity (Table 9)	EC50 (Table 9) [nM]	Ent. A Max Activity (Table 8)	EC50 (Table 8) [nM]	other results
Cc1cccc(C)c1-c1cc2nc(n1)NS(=O)(=O)c1cccc(c1)C(=O)N[C@@H](CC13CC4CC(CC(C4)C1)C3)CO2 (single isomer, unassigned) [Compound 111, 11-(1-adamantylmethyl)-6-(2,6-dimethylphenyl)-2,2-dioxo-9-oxa-2λ^6-thia-3,5,12,19-tetrazatricyclo[12.3.1.14,8]nonadeca-1(18),4(19),5,7,14,16-hexaen-13-one]	++ (++ is 30-60%)	< 1000			
Cc1cccc(C2CNC(=O)c3cccc(c3)S(=O)(=O)Nc3nc(cc(-c4c(C)cccc4C)n3)O2)c1 (stereo not shown) [Compound 404]			+++ (+++ is >60%)	< 1000	
Cc1cccc(C)c1-c1cc2nc(n1)NS(=O)(=O)c1cccc(c1)C(=O)NCC(c1cnc(C(C)(C)C)nc1)O2 (stereo not shown) [Compound 285]			+ (+ is <30%)		
Cc1cccc(C)c1-c1cc2cc(n1)NS(=O)(=O)c1cccc(c1)C(=O)N[C@H](CC(C)C)CO2 [Compound 296]			+++ (+++ is >60%)	< 1000	
Cc1cccc(C)c1-c1cc2nc(n1)NS(=O)(=O)c1cccc(c1)C(=O)N[C@H](CC1CCCCC1)[C@@H](c1ccc(C(C)(C)C)cc1)O2 [Compound 154]			+++ (+++ is >60%)	< 1000	
CC(C)C[C@@H]1COc2cc(-c3ncccn3)nc(n2)NS(=O)(=O)c2cccc(c2)C(=O)N1 [Compound 178]	+ (+ is <30%)				
Cc1cccc(C)c1-c1cc2nc(n1)NS(=O)(=O)c1cccc(c1)C(=O)N[C@@H]1CN(C3CCC4(CC3)CC4)CC[C@H]1O2 [Compound 374]	+++ (+++ is >60%)	1000 to 3000			
Cc1cccc(C)c1-c1cc2nc(n1)NS(=O)(=O)c1cccc(c1)C(=O)NC[C@@H](CC(C)C)O2 [Compound 254]			+ (+ is <30%)		
Cc1cccc(C)c1-c1cc2nc(n1)NS(=O)(=O)c1cccc(c1)C(=O)NC[C@H](c1ccc(CCC(C)(C)C)cc1)O2 (stereo in doubt) [Compound 148]	++ (++ is 30-60%)	< 1000			
COc1cc(C)c(CN2CCC3(CC2)CNC(=O)c2cccc(c2)S(=O)(=O)Nc2nc(cc(-c4c(C)cccc4C)n2)OC3)cc1C [Compound 438]					Ent. A Max Activity (Enteroid Assay A): ++ (++ is 30-60%); EC50 (Enteroid Assay A): 1000 to 3000 nM
Cc1cccc(C)c1-c1cc2nc(n1)NS(=O)(=O)c1cccc(c1)C(=O)NCC(c1ccc(OC(C)C)cc1)O2 (stereo not shown) [Compound 249]				< 1000	
Cc1cccc(C)c1-c1cc2nc(n1)NS(=O)(=O)c1cncc(c1)C(=O)N[C@H](CC(C)C)CO2 [Compound 413]			+++ (+++ is >60%)	1000 to 3000	
Cc1cccc(C)c1-c1cc2nc(n1)NS(=O)(=O)c1cccc(c1)C(=O)N[C@@H]1CCN(C(=O)OC(C)(C)C)C[C@H]1O2 (single isomer, unassigned) [Compound 87, tert-butyl 20-(2,6-dimethylphenyl)-10,16,16-trioxo-2-oxa-16λ^6-thia-5,9,17,19,22-pentaazatetracyclo[16.3.1.111,15.03,8]tricosa-1(21),11(23),12,14,18(22),19-hexaene-5-carboxylate]	+++ (+++ is >60%)	1000 to 3000			
CC(C)C[C@@H]1COc2cc(C3=CCC(C)CC3)nc(n2)NS(=O)(=O)c2cccc(c2)C(=O)N1 (stereo partly shown) [Compound 324]					Ent. A Max Activity (Enteroid Assay A): ++ (++ is 30-60%); EC50 (Enteroid Assay A): 1000 to 3000 nM
Cc1cccc(C)c1-c1cc2nc(n1)NS(=O)(=O)c1cccc(c1)C(=O)N[C@@H](CC(F)(F)F)CO2 (single isomer, unassigned) [Compound 94, 6-(2,6-dimethylphenyl)-11-(2,2,2-trifluoroethyl)-9-oxa-2λ^6-thia-3,5,12,19-tetraazatricyclo[12.3.1.14,8]nonadeca-1(17),4(19),5,7,14(18),15-hexaene-2,2,13-trione]	+++ (+++ is >60%)	1000 to 3000			
COc1cc(Cc2cccc(C)c2-c2cc3nc(n2)NS(=O)(=O)c2cccc(c2)C(=O)N[C@H](CC(C)C)CO3)cc(OC)c1 [Compound 167]	+++ (+++ is >60%)	< 1000			
